Measurements from patent publication EP0694545B1, “Substituted dibenzoxazepine compounds, pharmaceutical compositions and methods of use” (G.D. SEARLE & CO., priority 1991, dated 1992).
Counter-ions that a name gives are not always drawn.

Test system: Charles River male albino mice
Experiment: PBQ Writhing Assay (analgesic activity)
Type: in vivo
Design: key to PBQ WRITHING ASSAY I.G. (Active / *) / PBQ WRITHING ASSAY S.C. (Active / *): *: Indicates that, in accordance with the particular conditions set forth above for the Writhing Assay, and under the test criteria employed for that assay, after the administration of an initial screening dosage of 30 mg per kilogram of the compound, the number of writhes elicited by a mouse injected with PBQ was not equal to, or less than, one-half the median number of writhes recorded for the saline-treated control group of mice that day
Details: for PBQ WRITHING ASSAY I.G. (Active / *): intragastric; for PBQ WRITHING ASSAY I.G. (Active / *) / PBQ WRITHING ASSAY S.C. (Active / *): initial screening dose 30 mg per kilogram, 30 min before PBQ i.p., writhes counted for ten minutes; for PBQ WRITHING ASSAY S.C. (Active / *): subcutaneous
Description: The Writhing Assay is one of the most widely-used experimental procedures for measuring the analgesic activity of different narcotic and nonnarcotic analgesic agents, and involves the continuous, chemically-induced pain of visceral origin to an animal, such as a mouse or rat. [Gyires et al., Arch. int. Pharmacodyn, 267, 131-140 (1984); […] al., Fed. Proc., 15, 494 (1956); Koster et al., Fed. Proc., 18, 412 (1959); and Witken et al., J. Pharmacol. exp. Ther., 133, 400-408 (1961).] Chemicals which may be used to induce this pain include phenylbenzoquinone (PBQ) and acetic acid. As a result of the chemical irritation to the animal, a characteristic stretching and writhing of the animal (dorsiflexion of the animal's back, extension of its hindlimbs and the strong contraction of its abdominal musculature) will generally occur. […] Drugs which reduce the number of writhes of the animal appear to restore the normal nociceptive threshold of the animal. Charles River male albino mice, weighing 20 to 30 grams were used in this assay. Thirty minutes after subcutaneous or intragastric administration to ten mice of 30 mg per kilogram of body weight of a compound of the present invention ("test compound"), […] per 10 g of body weight of a 0.025% w/v solution of PBQ was injected intraperitoneally into each mouse. Ten mice which were given saline in place of a test compound of the invention were used as a control group. Five minutes later, each mouse was individually placed into a glass beaker for observation, and the number of writhes occurring during the following ten-minute period was counted. A test compound was considered to have produced analgesia in a mouse if, in accordance with the conditions set forth above, and under the test criteria employed for this assay, after the administration of 30 mg per kilogram of body weight of a compound of the present invention to the mouse, the number of writhes elicited by a mouse injected with PBQ was equal to, or less than, one-half the median number of writhes recorded for the saline-treated control group of mice that day, as described by Taber in "Predictive Value of Analgesic Assays in Mice and Rats," Advances in Biochemical Psychopharmacology, 8, 191 (1974). The standard initial screening dose of a test compound employed in this assay was […] for both routes of administration. If this initial screening dose of the test compound produced analgesia in seven of ten mice, then the effect of additional doses of the test compound on the writhing response was evaluated, and then the ED50 dose was generally calculated. (The slopes of the dose-response curves for all test compounds analyzed were compared as described by Tallarida and Murray, Manual of Pharmacologic Calculations, Page 11 (Springer Verlag, New York, 1981)).

O=C(CCCc1ccsc1)NNC(=O)N1Cc2ccccc2Oc2ccc(Cl)cc21 [Example 16, 8-chlorodibenz[b,f][1,4]oxazepine-10(11H)-carboxylic acid, 2-[1-oxo-4-(3-thienyl)butyl]hydrazide]
PBQ WRITHING ASSAY I.G. (Active / *): Active | PBQ WRITHING ASSAY S.C. (Active / *): *

O=C(CCc1cccc[n+]1[O-])NNC(=O)N1Cc2ccccc2Oc2ccc(Cl)cc21 [Example 10, 8-chlorodibenz[b,f][1,4]oxazepine-10(11H)--carboxylic acid, 2-[1-oxo-3-(2-pyridinyl)propyl]hydrazide, N-oxide]
PBQ WRITHING ASSAY I.G. (Active / *): * | PBQ WRITHING ASSAY S.C. (Active / *): *

O=C(CCCCc1cccs1)NNC(=O)N1Cc2ccccc2Oc2ccc(Cl)cc21 [Example 33, β-chlorodibenz[b,f][1,4]oxazepine-10(11H)-carboxylic acid, 2-[1-oxo-5-(2-thienyl)pentyl]hydrazide]
PBQ WRITHING ASSAY I.G. (Active / *): * | PBQ WRITHING ASSAY S.C. (Active / *): *

O=C(/C=C/c1cccnc1)NNC(=O)N1Cc2ccccc2Oc2ccc(Cl)cc21 [Example 7, 8-chlorodibenz[b,f][1,4]oxazepine-10(11H)-carboxylic acid, 2-[1-oxo-3-(3-pyridinyl)-2E-propenyl]hydrazide]
PBQ WRITHING ASSAY I.G. (Active / *): Active | PBQ WRITHING ASSAY S.C. (Active / *): Active

Cl.O=C(NNC(=O)N1Cc2ccccc2Oc2ccc(Cl)cc21)c1ccccn1 [Example 19, 8-chlorodibenz[b,f][1,4]oxazepine-10(11H)-carboxylic acid, 2-(2-pyridinylcarbonyl)hydrazide, monohydrochloride]
PBQ WRITHING ASSAY I.G. (Active / *): * | PBQ WRITHING ASSAY S.C. (Active / *): *

Cl.O=C(/C=C/c1ccncc1)NNC(=O)N1Cc2ccccc2Oc2ccc(Cl)cc21 [Example 27, 8-chlorodibenz[b,f][1,4]oxazepine-10(11H)-carboxylic acid, 2-[1-oxo-3-(4-pyridinyl)-2E-propenyl]hydrazide, monohydrochloride]
PBQ WRITHING ASSAY I.G. (Active / *): * | PBQ WRITHING ASSAY S.C. (Active / *): *

Cl.O=C(NNC(=O)N1Cc2ccccc2Oc2ccc(Cl)cc21)c1ccncc1 [Example 17, 8-chlorodibenz[b,f][1,4]oxazepine-10(11H)-carboxylic acid, 2-(4-pyridinylcarbonyl)hydrazide, monohydrochloride]
PBQ WRITHING ASSAY I.G. (Active / *): * | PBQ WRITHING ASSAY S.C. (Active / *): *

Cl.O=C(CCCc1ccccn1)NNC(=O)N1Cc2ccccc2Oc2ccc(Cl)cc21 [Example 29, 8-chlorodibenz[b,f][1,4]oxazepine-10(11H)-carboxylic acid, 2-[1-oxo-4-(2-pyridinyl)butyl]hydrazide, monohydrochloride]
PBQ WRITHING ASSAY I.G. (Active / *): Active | PBQ WRITHING ASSAY S.C. (Active / *): Active

8-chlorodibenz[b,f][1,4loxazepine-10(11H)-carboxylic acid, 2-(2-pyridinylacetyl)hydrazide, monohydrochloride [Example 21]
PBQ WRITHING ASSAY I.G. (Active / *): * | PBQ WRITHING ASSAY S.C. (Active / *): *

O=C(CCc1cccnc1)NNC(=O)N1Cc2ccccc2Oc2ccc(Cl)cc21 [Example 8, 8-chlorodibenz[b,f][1,4]oxazepine-10(11H)-carboxylic acid, 2-[1-oxo-3-(3-pyridinyl)propyl]hydrazide, monohydrochloride]
PBQ WRITHING ASSAY I.G. (Active / *): Active | PBQ WRITHING ASSAY S.C. (Active / *): Active

O=C(NNC(=O)C(F)(F)Cc1ccccn1)N1Cc2ccccc2Oc2ccc(Cl)cc21 [Example 37, 8-chlorodibenz[b,f][1,4]oxazepine-10(11H)-carboxylic acid, 2-[2,2-difluoro-1-oxo-3-(2-pyridinyl)propyl]hydrazide]
ED50 (Mus musculus, po, intragastric administration, read-out: PBQ WRITHING ASSAY (ED50 (mpk)) I.G.): 9.7 mg/kg | PBQ WRITHING ASSAY I.G. (Active / *): Active

Cl.O=C(/C=C/c1ccccn1)NNC(=O)N1Cc2ccccc2Oc2ccc(Cl)cc21 [Example 20, 8-chlorodibenz[b,f][1,4]oxazepine-10(11H)-carboxylic acid, 2-[1-oxo-3-(2-pyridinyl)-2E-propenyl]hydrazide, monohydrochloride]
PBQ WRITHING ASSAY I.G. (Active / *): * | PBQ WRITHING ASSAY S.C. (Active / *): *

Cl.O=C(Cc1cccnc1)NNC(=O)N1Cc2ccccc2Oc2ccc(Cl)cc21 [Example 22, 8-chlorodibenz[b,f][1,4]oxazepine-10(11H)-carboxylic acid, 2-(3-pyridinylacetyl)hydrazide, monohydrochloride]
PBQ WRITHING ASSAY I.G. (Active / *): * | PBQ WRITHING ASSAY S.C. (Active / *): Active

O=C(CCCc1ccncc1)NNC(=O)N1Cc2ccccc2Oc2ccc(Cl)cc21 [Example 31, 8-chlorodibenz[b,f][1,4]oxazepine-10(11H)-carboxylic acid, 2-[1-oxo-4-(4-pyridinyl)butyl]hydrazide]
PBQ WRITHING ASSAY I.G. (Active / *): Active | PBQ WRITHING ASSAY S.C. (Active / *): Active

Cl.O=C(NNC(=O)N1Cc2ccccc2Oc2ccc(Cl)cc21)c1cccnc1 [Example 18, 8-chlorodibenz[b,f][1,4]oxazepine-10(11H)-carboxylic acid, 2-(3-pyridinylcarbonyl)hydrazide, monohydrochloride]
PBQ WRITHING ASSAY I.G. (Active / *): * | PBQ WRITHING ASSAY S.C. (Active / *): *

8-chlorodibenz[b,f][1,4]oxazepine-10(11H)-carboxylic acid, 2-[1-oxo-4-(3-thienyl)-3E-butenyl]hydrazide [Example 13]
PBQ WRITHING ASSAY I.G. (Active / *): * | PBQ WRITHING ASSAY S.C. (Active / *): *

Cl.O=C(Cc1ccncc1)NNC(=O)N1Cc2ccccc2Oc2ccc(Cl)cc21 [Example 23, 8-chlorodibenz[b,f][1,4]oxazepine-10(11H)-carboxylic acid, 2-(4-pyridinylacetyl)hydrazide, monohydrochloride]
PBQ WRITHING ASSAY I.G. (Active / *): * | PBQ WRITHING ASSAY S.C. (Active / *): *

8-chlorodibenz[b,f][1,4]oxazepine-10(11H)-carboxylic acid, 2-[1-oxo-4-(3-thienyl)-3Z-butenyl]hydrazide [Example 14]
PBQ WRITHING ASSAY I.G. (Active / *): * | PBQ WRITHING ASSAY S.C. (Active / *): *
